What was measured:
[1] = cited from earlier work
[2] = Parent ionizable lipid remaining in liver at 24 h after EGFP mRNA LNP (LC-MS); format: in vivo; conditions: 24 h after IV 0.5 mg/kg EGFP mRNA LNP, female BALB/c mice (n = 4)
[3] = tested on: EGFP expression in the liver; assay: Dose response of EGFP mRNA LNP, EGFP expression in liver; format: in vivo; conditions: 24 h, female BALB/c mice (n = 4)
Protocol: At 24 h post-dose, the novel lipid formulations reported dose-dependent increases in EGFP expression in the liver (Table 32).

[4] = Particle characteristics of LNPs containing EGFP mRNA and novel ionizable lipids; format: physicochemical; conditions: EGFP mRNA LNP 1.6:54.6:32.8:10.9
Method in brief: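 LNPs of PEG-lipid, ionizable lipid, cholesterol and phospholipid in ethanol were mixed 1:1 with mRNA in 100 mM acetate pH 5 via T-junction, diluted in PBS, dialysed, concentrated to ~0.6 mg/mL and exchanged into 5 mM Tris, 10% sucrose, pH 8. Size and polydispersity by Zetasizer; nucleic acid by RiboGreen.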

[5] = tested on: EGFP expression in the liver; assay: EGFP expression in liver after intravenous EGFP mRNA LNP (ELISA); conditions: 0.5 mg/kg IV, 24 h post-IV administration, BALB/c mice (n = 4)
Protocol: LNP formulations encapsulating enhanced green fluorescent protein mRNA were injected intravenously at 0.5 mg/kg to female BALB/c mice (6-8 weeks old). On day of injection, the LNP stocks were filtered and diluted to the required dosing concentration with phosphate buffered saline. At 24 hours post-administration, animals were anaesthetized with a lethal dosage of ketamine/xylazine. Liver samples (left lateral lobe) were collected, weighed, and flash frozen in liquid nitrogen. Liver samples were stored in FastPrep® tubes at −80° C. until analyzed for EGFP expression.
Liver homogenates were prepared in cell extraction buffer, diluted, and analyzed for EGFP protein levels using ELISA, according to manufacturer's instructions (Abcam, GFP ELISA Kit).

[6] = Lipid clearance from liver over time after EGFP mRNA LNP (LC-MS); format: in vivo; conditions: IV 0.5 mg/kg EGFP mRNA LNP, female BALB/c mice (n = 4)
Protocol: Liver tissues were treated with PBS and homogenized with a FastPrep machine, 3 cycles of 5 m/s×15 s. Homogenates from the PBS-treated control animals was pooled and used for standard curve preparation. Samples were extracted into a deep well plate with 250 μL of an internal suitability standard. Plates were centrifuged for 15 min at 4° C. and 2000 rpm. Analysis was performed using an Agilent 6520 QTOF coupled to an Agilent 1290 UHPLC, using reverse-phase LC separation. Quantitation of the ionizable lipid was by MS/MS against a calibration curve spiked into appropriately matched blank matrix. Calibration used a similar class of synthetic lipid as internal standard.
At various timepoints post-dose, lipid levels were assessed in the liver. Some novel ionizable lipids reported more rapid clearance rates compared to the benchmark (Table 33).

| SMILES | EGFP expression ([3]; 0.3 mg/kg IV) [pg EGFP/g liver] | EGFP expression ([3]; 1 mg/kg IV) [pg EGFP/g liver] | EGFP expression ([3]; 3 mg/kg IV) [pg EGFP/g liver] | Parent ionizable lipid remaining in liver, Average ([6]; 0.25 h post-dose) [nmol/g liver] | Parent ionizable lipid remaining in liver, Average ([6]; 1 h post-dose) [nmol/g liver] | Parent ionizable lipid remaining in liver, Average ([6]; 3 h post-dose) [nmol/g liver] | Parent ionizable lipid remaining in liver, Average ([6]; 6 h post-dose) [nmol/g liver] | Parent ionizable lipid remaining in liver, Average ([6]; 24 h post-dose) [nmol/g liver] | Parent ionizable lipid remaining in liver, Average ([6]; 168 h post-dose) [nmol/g liver] | also measured |
| --- | --- | --- | --- | --- | --- | --- | --- | --- | --- | --- |
| CCCCCCCCC(CCCCCC)C(=O)OCCCCCCN(CCCCO)CCCCCCOC(=O)C(CCCCCC)CCCCCCCC (stereo not drawn) [ALC-0315] | – | – | – | – | – | – | – | – | – | Rate of metabolism (in words) ([1]; ref: Comirnaty Assessment Report, European Medicines Agency): metabolize at a similar rate to MC3 |
| CCCCCCCCCCN(C(=O)CCCN(C)C)C(CCCCCCCCC)CCCCC(F)(F)C(=O)OC(CCCCCCC)CCCCCCC (stereo not drawn) [Compound 101, Pentadecan-8-yl 7-(N-decyl-4-(dimethylamino)butanamido)-2,2-difluorohexadecanoate] | 2.65e+07 | 1.04e+08 | 3.9e+08 | 23.8 | 42.4 | 26.9 | 30.6 | 12.6 | 0.6 | Parent ionizable lipid remaining in liver, Average ([2]; Table 29): 16.30 nmol/g liver; Final Product % EE ([4]; Table 21): 100%; Final Product PDI ([4]; Table 21): 0.10; Final Product Z-avg ([4]; Table 21): 70 nm; EGFP ([5]; Table 25): 2.25E+05 pg/g liver |
| CCCCCCCCCCN(C(=O)CCCN(C)C)C(CCCCCCCCC)CCCCCCC(F)C(=O)OC(CCCCCCCC)CCCCCCCC (stereo not drawn) [Compound 115, Heptadecan-9-yl 9-(N-decyl-4-(dimethylamino)butanamido)-2-fluorooctadecanoate] | 2.98e+07 | 1.31e+08 | 3.41e+08 | 36.7 | 51.3 | 44.8 | 45.3 | 0.0 | 1.3 | Parent ionizable lipid remaining in liver, Average ([2]; Table 30): 27.15 nmol/g liver; Final Product % EE ([4]; Table 22): 98%; Final Product PDI ([4]; Table 22): 0.04; Final Product Z-avg ([4]; Table 22): 72 nm; EGFP ([5]; Table 26): 6.06E+07 pg/g liver |
| CCCCC/C=C\C/C=C\CCCCCCCCC(CCCCCCCC/C=C\C/C=C\CCCCC)OC(=O)CCCN(C)C [MC3] | – | – | – | – | – | – | – | – | – | Clearance from target tissues (in words) ([1]; in vivo): take several weeks to clear from target tissues |

— patent US20250332112A1, “IONIZABLE CATIONIC LIPIDS FOR LIPID NANOPARTICLES” (GENEVANT SCIENCES GMBH, priority 2022, published 2025)
